The values below come from patent publication US9200260B2, “Compositions and methods for the transfer of a hexosamine to a modified nucleotide in a nucleic acid” (New England Biolabs, Inc., priority 2012, dated 2015).

Assay [1] concerns the target T1, wild-type BGT (T4-β-glucosyltransferase) (Enterobacteria phage T4, UniProt P04547).
T1 construct: purchased New England Biolabs, Inc. (Ipswich, Mass.)
T1 sequence (P04547 1-351): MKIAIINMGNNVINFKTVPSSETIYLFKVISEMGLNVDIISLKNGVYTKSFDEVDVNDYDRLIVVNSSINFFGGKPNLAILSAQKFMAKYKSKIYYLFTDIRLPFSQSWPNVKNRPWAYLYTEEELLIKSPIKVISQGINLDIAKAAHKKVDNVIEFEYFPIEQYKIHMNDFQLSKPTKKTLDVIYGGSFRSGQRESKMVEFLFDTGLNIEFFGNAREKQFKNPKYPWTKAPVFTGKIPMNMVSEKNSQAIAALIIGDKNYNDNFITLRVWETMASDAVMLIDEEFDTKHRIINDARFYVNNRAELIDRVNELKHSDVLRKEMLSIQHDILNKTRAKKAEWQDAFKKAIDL
The experiment in a line: Enzymatic transfer of UDP-sugars to BGT DNA by wild-type BGT (protection from MfeI cleavage, agarose gel). It counts as biochemical. As to conditions: for UDP-Sugar concentration required for complete protection of BGT DNA from MfeI cleavage: enzyme BGT, 100 ng, 0.25 μg BGT DNA, 37° C. 1 h, >> incomplete protection at highest tested concentration, n.a. no activity. The method, then:
(§1) After glycosylation, the glucosyltransferase was heat-inactivated by incubating for 10 minutes at 70° C. To analyze the enzyme-catalyzed transfer efficiency, samples were incubated with 1 μL (20 units) MfeI for 1 hour at 37° C. Reaction products were separated by agarose gel electrophoresis and stained with ethidium bromide to check for complete protection of BGT DNA against MfeI cleavage. […]
(§2) BGT DNA contains 5-hmC instead of cytosine and was produced from phage deficient in α- and β-glucosyltransferases. The degree of glycosylation of BGT DNA was determined by incubating the samples with the restriction endonuclease MfeI.
(§3) Top row: wild-type BGT; middle row: BGT/Y261L; bottom row: wild-type AGT. […] Then the glucosyltransferase was killed by heat at 70° C., and 1 μL (20 units) MfeI was added and incubated at 37° C. for 1 hour. The results were analyzed by agarose gel electrophoresis. Concentration values are given in mM.
(§4) Top row: wild-type BGT; middle row: BGT/Y261L; bottom row: wild-type AGT. […] Various concentrations of each substrate (as indicated) were incubated with 0.25 μg BGT DNA in the presence of 100 ng glucosyltransferase at 37° C. for 1 hour. Then the glucosyltransferase was killed by heat at 70° C. for 10 minutes, and 1 μL (20 units) MfeI was added and incubated at 37° C. for 1 hour. The results were analyzed by agarose gel electrophoresis. Concentration values are given in mM.

The target of assay [2] is T2, wild-type AGT (T4 phage α-glucosyltransferase) (Enterobacteria phage T4, UniProt P04519).
T2 construct: purchased New England Biolabs, Inc. (Ipswich, Mass.)
Kind of assay: Enzymatic transfer of UDP-sugars to BGT DNA by wild-type AGT (protection from MfeI cleavage, agarose gel). It counts as biochemical. Conditions: for UDP-Sugar concentration required for complete protection of BGT DNA from MfeI cleavage: enzyme AGT, 100 ng, 0.25 μg BGT DNA, 37° C. 1 h, >> incomplete protection at highest tested concentration, n.a. no activity. The method, then:
After glycosylation, the glucosyltransferase was heat-inactivated by incubating for 10 minutes at 70° C. To analyze the enzyme-catalyzed transfer efficiency, samples were incubated with 1 μL (20 units) MfeI for 1 hour at 37° C. Reaction products were separated by agarose gel electrophoresis and stained with ethidium bromide to check for complete protection of BGT DNA against MfeI cleavage.
Nucleic Acids Res., 13, 7551-7568; Szwagierczak, A., Bultmann, S., Schmidt, C. […] Nucleic Acids Res., 38, e181].
as §2, §3, §4

In assay [3] the target is T3, BGT/Y261L (Enterobacteria phage T4, UniProt P04547, Y261L). Conditions: 0.02 to 10.0 mM in the presence of 40 μM UDP-Glc; UDP-Glc 0.02 to 20.0 mM in the presence of 5 mM compound. The procedure: (§5) After adding 100 ng of wild-type BGT or BGT/Y261L, the reaction mixtures were incubated at 37° C. for 1 hour in 1× NEBuffer 4. After glycosylation, the glucosyltransferase was heat-inactivated by incubating for 10 minutes at 70° C. […] Reaction products were separated by electrophoresis on agarose gel and stained with ethidium bromide.
(§6) Concentration values are given in mM.

The target in assay [4] is T4, wild-type BGT (Enterobacteria phage T4, UniProt P04547). As to conditions: 0.02 to 10.0 mM in the presence of 40 μM UDP-Glc; UDP-Glc 0.02 to 20.0 mM in the presence of 5 mM compound. The procedure:
as §5, §6

In another assay the target is AGT (Enterobacteria phage T4, UniProt P04519).
The target of assay [5] is T3, BGT/Y261L. It counts as biochemical. More on the design: purchased New England Biolabs, Inc. (Ipswich, Mass.). As to conditions: for transfer efficiency by BGT/Y261L (in words): compared with natural UDP-Glc; for UDP-Sugar concentration required for complete protection of BGT DNA from MfeI cleavage: enzyme BGT/Y261L, 100 ng, 0.25 μg BGT DNA, 37° C. 1 h, >> incomplete protection at highest tested concentration, n.a. no activity. The procedure: as §1, §2, §3, §4

Assay [6] concerns the target T4, wild-type BGT. As to conditions: cited from earlier work.

T3 sequence (P04547 whole entry Y261L): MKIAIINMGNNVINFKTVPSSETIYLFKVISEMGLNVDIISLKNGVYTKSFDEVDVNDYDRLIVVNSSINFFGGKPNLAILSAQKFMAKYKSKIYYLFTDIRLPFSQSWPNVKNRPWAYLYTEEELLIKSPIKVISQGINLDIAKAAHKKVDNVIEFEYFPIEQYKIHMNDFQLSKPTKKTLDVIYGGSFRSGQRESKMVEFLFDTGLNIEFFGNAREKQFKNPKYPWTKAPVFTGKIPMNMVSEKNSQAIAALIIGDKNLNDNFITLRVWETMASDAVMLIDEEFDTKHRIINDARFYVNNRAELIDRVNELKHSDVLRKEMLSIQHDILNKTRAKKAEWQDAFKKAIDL
T2 sequence (P04519 whole entry): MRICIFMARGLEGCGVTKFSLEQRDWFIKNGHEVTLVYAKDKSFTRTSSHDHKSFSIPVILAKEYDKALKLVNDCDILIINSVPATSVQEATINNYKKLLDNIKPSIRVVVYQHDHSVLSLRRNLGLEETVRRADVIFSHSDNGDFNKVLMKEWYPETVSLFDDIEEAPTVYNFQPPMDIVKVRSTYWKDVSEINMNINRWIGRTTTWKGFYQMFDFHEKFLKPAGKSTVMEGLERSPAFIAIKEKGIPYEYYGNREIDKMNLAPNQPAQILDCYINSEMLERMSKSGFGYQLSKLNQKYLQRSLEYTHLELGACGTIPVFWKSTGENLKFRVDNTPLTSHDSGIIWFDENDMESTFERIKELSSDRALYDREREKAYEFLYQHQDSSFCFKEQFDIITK
Chain of AGT (P04519 whole entry): as above

As to `[N-]=[N+]=NC1C(OP(=O)(O)OP(=O)(O)OCC2OC(n3ccc(=O)[nH]c3=O)C(O)C2O)OC(CO)C(O)C1O` (stereo not shown) [Compound 2, UDP-2-Azido-Glc], in assay [1] (compared with natural UDP-Glc), the “transfer efficiency by wild-type BGT (in words)” value was “None of the three tested enzymes efficiently transferred”. Further, the “transfer efficiency by wild-type AGT (in words)” value in assay [2] is given as “None of the three tested enzymes efficiently transferred”. On BGT/Y261L [3], the “inhibition of BGT/Y261L (mode, in words)” value is reported as “competitive inhibitor”. For the same compound, the “inhibition of wild-type BGT (mode, in words)” value on wild-type BGT [4] was “competitive inhibitor”. Moreover, the “inhibition of AGT (in words)” value on AGT is “not for AGT”. Moreover, the “transfer efficiency by BGT/Y261L (in words)” value at BGT/Y261L [5] is given as “None of the three tested enzymes efficiently transferred”.
Take UDP-2-Keto-Glc [Compound 5]: the “UDP-Sugar concentration required for complete protection of BGT DNA from MfeI cleavage” value (shortened to “UDP-Sugar concentration required”) (in assay [1]; at BGT/Y261L [5]) was >>4.0 mM each time. Further, the “transfer by BGT/Y261L at the highest tested concentration” value on BGT/Y261L [5] (4 mM) is on record as “not detected”.
`NCC1OC(OP(=O)(O)OP(=O)(O)OC[C@H]2O[C@@H](n3ccc(=O)[nH]c3=O)[C@H](O)[C@@H]2O)C(O)C(O)C1O` (stereo partly shown) [Compound 3, UDP-6-glucosamine]: the “UDP-Sugar concentration required” value in assay [1] was 0.02 mM; in assay [2], >>5.0 mM; on BGT/Y261L [5] it was 0.31 mM. Besides, the “transfer efficiency by BGT/Y261L, lower than natural UDP-Glc” value at BGT/Y261L [5] (relative to natural UDP-Glc) was “about 15 fold”.
On to `CC(=O)N[C@H]1[C@@H](OP(=O)(O)OP(=O)(O)OC[C@H]2O[C@@H](n3ccc(=O)[nH]c3=O)[C@H](O)[C@@H]2O)O[C@H](CO)[C@@H](O)[C@@H]1O` [UDP-GlcNAc, UDP-N-acetyl-D-glucosamine, reference compound], for which the “UDP-Sugar concentration required” value in assay [1] was 25 mM; in assay [2] it was >>20.0 mM; at BGT/Y261L [5], 2.5 mM. The “transfer by BGT/Y261L more efficient than by wild-type BGT” value on BGT/Y261L [5] (BGT/Y261L versus wild-type BGT) was found to be 10 fold. The “transfer efficiency by the Y261L enzyme, lower compared to UDP-2-GlcN 4” value at BGT/Y261L [5] (relative to UDP-2-GlcN 4) is listed as “approximately 100 fold”.
Take `O=C(O)[C@H]1O[C@H](OP(=O)(O)OP(=O)(O)OC[C@H]2O[C@@H](n3ccc(=O)[nH]c3=O)[C@H](O)[C@@H]2O)[C@H](O)[C@@H](O)[C@@H]1O` [UDP-GlcUA, UDP-Glucuronic acid, reference compound]: the results for the “UDP-Sugar concentration required” value (in assay [1]; in assay [2]; on BGT/Y261L [5]) were 1.0 mM, >>20.0 mM and >>10.0 mM, respectively.
The matching figures for `N[C@H]1[C@@H](OP(=O)(O)OP(=O)(O)OC[C@H]2O[C@@H](n3ccc(=O)[nH]c3=O)[C@H](O)[C@@H]2O)O[C@H](CO)[C@@H](O)[C@@H]1O` [Compound 4, UDP-2-glucosamine]: 0.03 mM, >>1.25 mM and 0.03 mM.
`[N-]=[N+]=NCC1OC(OP(=O)(O)OP(=O)(O)OC[C@H]2O[C@@H](n3ccc(=O)[nH]c3=O)[C@H](O)[C@@H]2O)C(O)C(O)C1O` (stereo partly shown) [Compound 1, UDP-6-Azido-Glc, reference compound]: the “UDP-Sugar concentration required” value was 0.04 mM in assay [1] and >>1.0 mM on BGT/Y261L [5]. The “decrease in the reaction rate compared to the native UDP-Glc cofactor” value on wild-type BGT [6] is on record as around 6 fold. In addition, on BGT/Y261L [5], the “transfer efficiency by BGT/Y261L (in words)” value is “cannot efficiently transfer”.
